{
  "source": "patent US10457710B2",
  "about": "“Antimicrobial peptides, their variants and uses” (priority 2015, dated 2019)",
  "assay_type_in_all_cases": "cell-based",
  "key": {"[1]": {"test_system": "clinical strains of S. pneumoniae", "test": "MIC, microdilution, clinical strains", "conditions": "0.02% BSA, 0.2% acetic acid", "summary_of_the_method": "(§1)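 Overnight MH agar colonies were suspended in MH broth to 5.0×10^5 cfu/ml, mixed with serial peptide dilutions (0.125–128 μg/ml) and incubated at 37° C for 20 to 24 hours. Yeast MICs were run the same way in potato dextrose broth, and wells were scored visually.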"}, "[2]": {"test_system": "clinical strains of E. cloacae", "test": "MIC, microdilution, clinical strains", "conditions": "0.02% BSA, 0.2% acetic acid", "summary_of_the_method": "as §1"}, "[3]": {"test_system": "clinical strains of Proteus mirabilis", "test": "MIC, microdilution, clinical strains", "conditions": "0.02% BSA, 0.2% acetic acid", "summary_of_the_method": "as §1"}, "[4]": {"test_system": "clinical strains of E. coli", "test": "MIC, microdilution, clinical strains", "conditions": "microdilution, Muller Hinton broth-cation adjusted, 0.02% BSA, 0.2% acetic acid", "summary_of_the_method": "as §1"}, "[5]": {"test_system": "clinical strains of Serratia marcescens", "test": "MIC, microdilution, clinical strains", "conditions": "0.02% BSA, 0.2% acetic acid", "summary_of_the_method": "as §1"}, "[6]": {"test_system": "clinical strains of S. aureus", "test": "MIC, microdilution, clinical strains", "conditions": "0.02% BSA, 0.2% acetic acid", "summary_of_the_method": "as §1"}, "[7]": {"test_system": "clinical strains of P. aeruginosa", "test": "MIC, microdilution, clinical strains", "conditions": "0.02% BSA, 0.2% acetic acid", "summary_of_the_method": "as §1"}, "[8]": {"test_system": "clinical strains of K. pneumoniae", "test": "MIC, microdilution, clinical strains", "conditions": "0.02% BSA, 0.2% acetic acid", "summary_of_the_method": "as §1"}, "C. quillermondiae": {"test_system": "C. quillermondiae", "test": "MIC, clinical yeast strains", "conditions": "clinical yeast strain 1; D-form peptide; concentrations tested 0.125 to 128 μg/ml", "summary_of_the_method": "(§2)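 Broth microdilution with inocula adjusted to 5.0×10^5 cfu/ml; peptides tested at 0.125 to 128 μg/ml and incubated at 37° C for 20 to 24 hours. Bacteria were grown in Mueller Hinton broth, yeasts in potato dextrose broth. MIC was the lowest concentration showing no visible growth.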"}, "C. glabrata": {"test_system": "C. glabrata", "test": "MIC, clinical yeast strains", "conditions": "D-form peptide, concentrations tested 0.125 to 128 μg/ml", "summary_of_the_method": "as §2"}, "C. parapsilosis": {"test_system": "C. parapsilosis", "test": "MIC, clinical yeast strains", "conditions": "D-form peptide, concentrations tested 0.125 to 128 μg/ml", "summary_of_the_method": "as §2"}, "Candida albicans": {"test_system": "Candida albicans", "test": "MIC, clinical yeast strains", "conditions": "D-form peptide, concentrations tested 0.125 to 128 μg/ml", "summary_of_the_method": "as §2"}},
  "note": "Where a SMILES comes first, the peptide text is derived from it. [ ]: non-standard residue; d: D form.",
  "data": [
    {"smiles": "CC(C)C[C@@H](NC(=O)[C@@H](CCCCN)NC(=O)[C@@H](Cc1c[nH]c2ccccc12)NC(=O)[C@@H](CCCCN)NC(=O)[C@@H](C)NC(=O)[C@@H](Cc1c[nH]cn1)NC(=O)[C@@H](CC(C)C)NC(=O)[C@@H](CCCNC(=N)N)NC(=O)[C@@H](Cc1c[nH]c2ccccc12)NC(=O)[C@H](N)Cc1c[nH]c2ccccc12)C(=O)N[C@H](Cc1c[nH]c2ccccc12)C(=O)O", "note": "[Chain109D] (H-[dW][dW][dR][dL][dH][dA][dK][dW][dK][dL][dW]-OH)", "values": [
      {"measurement": "Minimum inhibitory concentration", "setting": "[1]; Streptococcus pneumoniae strain 1, Muller Hinton broth-cation adjusted", "result": 16},
      {"measurement": "Minimum inhibitory concentration", "setting": "[1]; Streptococcus pneumoniae strain 2, Muller Hinton broth-cation adjusted", "result": 8},
      {"measurement": "Minimum inhibitory concentration", "setting": "[1]; Streptococcus pneumoniae strain 3, Muller Hinton broth-cation adjusted", "result": 2},
      {"measurement": "Minimum inhibitory concentration", "setting": "[1]; Streptococcus pneumoniae strain 4, Muller Hinton broth-cation adjusted", "result": 8},
      {"measurement": "Minimum inhibitory concentration", "setting": "[1]; Streptococcus pneumoniae strain 5, Muller Hinton broth-cation adjusted", "result": 8},
      {"measurement": "Minimum inhibitory concentration", "setting": "[2]; Enterobacter cloacae strain 1, Muller Hinton broth-cation adjusted", "result": 4},
      {"measurement": "Minimum inhibitory concentration", "setting": "[2]; Enterobacter cloacae strain 2, Muller Hinton broth-cation adjusted", "result": 8},
      {"measurement": "Minimum inhibitory concentration", "setting": "[2]; Enterobacter cloacae strain 3, Muller Hinton broth-cation adjusted", "result": 8},
      {"measurement": "Minimum inhibitory concentration", "setting": "[2]; Enterobacter cloacae strain 4, Muller Hinton broth-cation adjusted", "result": 8},
      {"measurement": "Minimum inhibitory concentration", "setting": "[2]; Enterobacter cloacae strain 5, Muller Hinton broth-cation adjusted", "result": 4},
      {"measurement": "Minimum inhibitory concentration", "setting": "[3]; Proteus mirabilis strain 1, Muller Hinton broth-cation adjusted", "result": ">128"},
      {"measurement": "Minimum inhibitory concentration", "setting": "[3]; Proteus mirabilis strain 2, Muller Hinton broth-cation adjusted", "result": 64},
      {"measurement": "Minimum inhibitory concentration", "setting": "[3]; Proteus mirabilis strain 3, Muller Hinton broth-cation adjusted", "result": 64},
      {"measurement": "Minimum inhibitory concentration", "setting": "[3]; Proteus mirabilis strain 4, Muller Hinton broth-cation adjusted", "result": ">128"},
      {"measurement": "Minimum inhibitory concentration", "setting": "[3]; Proteus mirabilis strain 5, Muller Hinton broth-cation adjusted", "result": ">128"},
      {"measurement": "Minimum inhibitory concentration", "setting": "[4]; Escherichia coli strain 1", "result": 16},
      {"measurement": "Minimum inhibitory concentration", "setting": "[4]; Escherichia coli strain 2", "result": 4},
      {"measurement": "Minimum inhibitory concentration", "setting": "[4]; Escherichia coli strain 3", "result": 4},
      {"measurement": "Minimum inhibitory concentration", "setting": "[4]; Escherichia coli strain 4", "result": 4},
      {"measurement": "Minimum inhibitory concentration", "setting": "[4]; Escherichia coli strain 5", "result": 4},
      {"measurement": "Minimum inhibitory concentration", "setting": "[5]; Serratia marcescens strain 1, Muller Hinton broth-cation adjusted", "result": ">128"},
      {"measurement": "Minimum inhibitory concentration", "setting": "[5]; Serratia marcescens strain 2, Muller Hinton broth-cation adjusted", "result": ">128"},
      {"measurement": "Minimum inhibitory concentration", "setting": "[5]; Serratia marcescens strain 3, Muller Hinton broth-cation adjusted", "result": ">128"},
      {"measurement": "Minimum inhibitory concentration", "setting": "[5]; Serratia marcescens strain 4, Muller Hinton broth-cation adjusted", "result": ">128"},
      {"measurement": "Minimum inhibitory concentration", "setting": "[5]; Serratia marcescens strain 5, Muller Hinton broth-cation adjusted", "result": 64},
      {"measurement": "Minimum inhibitory concentration", "setting": "[6]; Staphylococcus aureus strain 1, Muller Hinton broth-cation adjusted", "result": 2},
      {"measurement": "Minimum inhibitory concentration", "setting": "[6]; Staphylococcus aureus strain 2, Muller Hinton broth-cation adjusted", "result": 4},
      {"measurement": "Minimum inhibitory concentration", "setting": "[6]; Staphylococcus aureus strain 3, Muller Hinton broth-cation adjusted", "result": 2},
      {"measurement": "Minimum inhibitory concentration", "setting": "[6]; Staphylococcus aureus strain 4, Muller Hinton broth-cation adjusted", "result": 2},
      {"measurement": "Minimum inhibitory concentration", "setting": "[6]; Staphylococcus aureus strain 5, Muller Hinton broth-cation adjusted", "result": 2},
      {"measurement": "Minimum inhibitory concentration", "setting": "[7]; Pseudomonas aeruginosa strain 1, Muller Hinton broth-cation adjusted", "result": 16},
      {"measurement": "Minimum inhibitory concentration", "setting": "[7]; Pseudomonas aeruginosa strain 2, Muller Hinton broth-cation adjusted", "result": 16},
      {"measurement": "Minimum inhibitory concentration", "setting": "[7]; Pseudomonas aeruginosa strain 3, Muller Hinton broth-cation adjusted", "result": 16},
      {"measurement": "Minimum inhibitory concentration", "setting": "[7]; Pseudomonas aeruginosa strain 4, Muller Hinton broth-cation adjusted", "result": 16},
      {"measurement": "Minimum inhibitory concentration", "setting": "[7]; Pseudomonas aeruginosa strain 5, Muller Hinton broth-cation adjusted", "result": 8},
      {"measurement": "Minimum inhibitory concentration", "setting": "[8]; Klebsiella pneumoniae strain 1, Muller Hinton broth-cation adjusted", "result": 16},
      {"measurement": "Minimum inhibitory concentration", "setting": "[8]; Klebsiella pneumoniae strain 2, Muller Hinton broth-cation adjusted", "result": 8},
      {"measurement": "Minimum inhibitory concentration", "setting": "[8]; Klebsiella pneumoniae strain 3, Muller Hinton broth-cation adjusted", "result": 8},
      {"measurement": "Minimum inhibitory concentration", "setting": "[8]; Klebsiella pneumoniae strain 4, Muller Hinton broth-cation adjusted", "result": 16},
      {"measurement": "Minimum inhibitory concentration", "setting": "[8]; Klebsiella pneumoniae strain 5, Muller Hinton broth-cation adjusted", "result": 8},
      {"measurement": "Minimum inhibitory concentration, C. quillermondiae strain 1", "setting": "C. quillermondiae", "result": 128},
      {"measurement": "Minimum inhibitory concentration, C. glabrata strain 1", "setting": "C. glabrata; clinical yeast strain 1", "result": 128},
      {"measurement": "Minimum inhibitory concentration, C. glabrata strain 2", "setting": "C. glabrata; clinical yeast strain 2", "result": 128},
      {"measurement": "Minimum inhibitory concentration, C. glabrata strain 3", "setting": "C. glabrata; clinical yeast strain 3", "result": 16},
      {"measurement": "Minimum inhibitory concentration, C. glabrata strain 4", "setting": "C. glabrata; clinical yeast strain 4", "result": 64},
      {"measurement": "Minimum inhibitory concentration, C. parapsilosis strain 1", "setting": "C. parapsilosis; clinical yeast strain 1", "result": 128},
      {"measurement": "Minimum inhibitory concentration, C. parapsilosis strain 2", "setting": "C. parapsilosis; clinical yeast strain 2", "result": 128},
      {"measurement": "Minimum inhibitory concentration, C. parapsilosis strain 3", "setting": "C. parapsilosis; clinical yeast strain 3", "result": 128},
      {"measurement": "Minimum inhibitory concentration, C. parapsilosis strain 4", "setting": "C. parapsilosis; clinical yeast strain 4", "result": 8},
      {"measurement": "Minimum inhibitory concentration, Candida albicans strain 1", "setting": "Candida albicans; clinical yeast strain 1", "result": 128},
      {"measurement": "Minimum inhibitory concentration, Candida albicans strain 2", "setting": "Candida albicans; clinical yeast strain 2", "result": 128},
      {"measurement": "Minimum inhibitory concentration, Candida albicans strain 3", "setting": "Candida albicans; clinical yeast strain 3", "result": 128},
      {"measurement": "Minimum inhibitory concentration, Candida albicans strain 4", "setting": "Candida albicans; clinical yeast strain 4", "result": 128},
      {"measurement": "Minimum inhibitory concentration, Candida albicans strain 5", "setting": "Candida albicans; clinical yeast strain 5", "result": 128}
    ]}
  ]
}
